Reference: PubChem BioAssay AID248 (DTP/NCI, 2004)
Where “and” joins values, the source holds several entries; their conditions need not be identical. Identical values can stand only once. Inconclusive results and toxic doses are left out. Rule as the data show it: active = T/C of 150% or more; inactive = T/C below 125%.

Test system: L1210 leukemia ip in BDF1 mice, survival T/C
Assay: NCI In Vivo Anticancer Drug Screen. Data for tumor model L1210 Leukemia (intraperitoneal) in B6D2F1 (BDF1) mice
Conditions: endpoint: mean survival time, higher = longer survival
Outline: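 Tumor was transplanted into mice, which were then dosed with test compound or vehicle alone. Survival was recorded for each group, and the treated figure was expressed relative to the control figure.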

[1] = dose: 100.0 mg/kg/injection, schedule: Q01DX001 (ip), vehicle: saline
[2] = dose: 200.0 mg/kg/injection, schedule: Q01DX001 (ip), vehicle: saline
[3] = dose: 400.0 mg/kg/injection, schedule: Q01DX001 (ip), vehicle: saline
[4] = dose: 100.0 mg/kg/injection, schedule: Q01DX001 (ip), vehicle: Klucel (hydroxypropylcellulose) (HPC)
[5] = dose: 100.0 mg/kg/injection, schedule: Q04DX003 (ip), vehicle: Klucel (hydroxypropylcellulose) (HPC)
[6] = dose: 200.0 mg/kg/injection, schedule: Q04DX003 (ip), vehicle: Klucel (hydroxypropylcellulose) (HPC)
[7] = dose: 400.0 mg/kg/injection, schedule: Q01DX001 (ip), vehicle: Klucel (hydroxypropylcellulose) (HPC)
[8] = dose: 400.0 mg/kg/injection, schedule: Q04DX003 (ip), vehicle: Klucel (hydroxypropylcellulose) (HPC)

Measured: T/C

Cn1nc(-c2ccc([N+](=O)[O-])o2)nc1N
inactive: dose: 50.0 mg/kg/injection, schedule: Q01DX001 (ip), vehicle: saline 98 % of control | [1] 96 % of control | [2] 98 % of control | [3] 104 % of control

CO[Si](C)(C)C
inactive: [1] 98 % of control | [2] 98 % of control | [3] 100 % of control

O=NN(CCCl)C(=O)Nc1ccc(S(=O)(=O)F)cc1
inactive: dose: 500.0 mg/kg/injection, schedule: Q01DX001 (ip), vehicle: carboxymethylcellulose (CMC) 110 % of control

CCCCCCCCCCCCCCCCOc1ccc(Cl)cc1
inactive: [4] 95 % of control | [5] 97 % of control | [6] 87 % of control | [7] 92 % of control | [8] 93 % of control

C=C1N(S(=O)(=O)c2ccc(C)cc2)C(=O)OC12CCCCC2
inactive: dose: 100.0 mg/kg/injection, schedule: Q01DX009 (ip), vehicle: saline with Tween-80 95 % of control | dose: 200.0 mg/kg/injection, schedule: Q01DX009 (ip), vehicle: saline with Tween-80 103 % of control | dose: 400.0 mg/kg/injection, schedule: Q01DX009 (ip), vehicle: saline with Tween-80 105 % of control

Cc1nc2nc(Cl)c(Cl)nc2[nH]1
inactive: dose: 25.0 mg/kg/injection, schedule: Q04DX003 (ip), vehicle: saline with Tween-80 92 % of control | dose: 50.0 mg/kg/injection, schedule: Q04DX003 (ip), vehicle: saline with Tween-80 97 % of control | [5] 102 % of control | dose: 100.0 mg/kg/injection, schedule: Q04DX003 (ip), vehicle: saline with Tween-80 89 % of control

Cc1nc(SCc2ccccc2)[nH]c(=O)c1CC(C)O (configuration not stated)
inactive: [5] 104 % of control | [6] 97 % of control | [8] 104 % of control

CS(=O)(=O)OCCN1CCC2(CC1)SSC1(CCN(CCOS(C)(=O)=O)CC1)S2
inactive: dose: 6.25 mg/kg/injection, schedule: Q01DX009 (ip), vehicle: saline 98 % of control | dose: 12.5 mg/kg/injection, schedule: Q01DX009 (ip), vehicle: saline 101 % of control | dose: 12.5 mg/kg/injection, schedule: Q04DX003 (ip), vehicle: saline 108 % of control | dose: 25.0 mg/kg/injection, schedule: Q04DX003 (ip), vehicle: saline 95 % of control

Cc1ccc2c(n1)Nc1nc(N)[nH]c(=O)c1S2
inactive: dose: 12.5 mg/kg/injection, schedule: Q04DX003 (ip), vehicle: carboxymethylcellulose (CMC) 97 % of control | dose: 25.0 mg/kg/injection, schedule: Q04DX003 (ip), vehicle: carboxymethylcellulose (CMC) 97 % of control

CC(C)CC(N)C(N)=O (configuration not stated)
inactive: dose: 12.5 mg/kg/injection, schedule: Q04DX002 (ip), vehicle: saline 107 % of control | dose: 25.0 mg/kg/injection, schedule: Q04DX002 (ip), vehicle: saline 100 % of control | dose: 50.0 mg/kg/injection, schedule: Q04DX002 (ip), vehicle: saline 107 % of control

O=C(O)C1C2CC=CCC21 (configuration not stated)
inactive: dose: 25.0 mg/kg/injection, schedule: Q01DX001 (ip), vehicle: Klucel (hydroxypropylcellulose) (HPC) 102 % of control | dose: 50.0 mg/kg/injection, schedule: Q01DX001 (ip), vehicle: Klucel (hydroxypropylcellulose) (HPC) 101 % of control | [4] 93 % of control and 94 % of control | [5] 101 % of control | dose: 200.0 mg/kg/injection, schedule: Q01DX001 (ip), vehicle: Klucel (hydroxypropylcellulose) (HPC) 93 % of control | [6] 98 % of control | [7] 97 % of control | [8] 102 % of control

COc1ccc(NC(=O)Nc2cccc(SC)c2)cc1
inactive: dose: 100.0 mg/kg/injection, schedule: Q01DX009 (ip), vehicle: carboxymethylcellulose (CMC) 94 % of control and 97 % of control | dose: 100.0 mg/kg/injection, schedule: Q04DX002 (ip), vehicle: Klucel (hydroxypropylcellulose) (HPC) 93 % of control | dose: 100.0 mg/kg/injection, schedule: Q04DX002 (ip), vehicle: carboxymethylcellulose (CMC) 97 % of control and 101 % of control | dose: 100.0 mg/kg/injection, schedule: Q04DX003 (ip), vehicle: carboxymethylcellulose (CMC) 94 % of control | dose: 200.0 mg/kg/injection, schedule: Q01DX009 (ip), vehicle: carboxymethylcellulose (CMC) 92 % of control and 95 % of control | dose: 200.0 mg/kg/injection, schedule: Q04DX002 (ip), vehicle: Klucel (hydroxypropylcellulose) (HPC) 93 % of control | dose: 200.0 mg/kg/injection, schedule: Q04DX002 (ip), vehicle: carboxymethylcellulose (CMC) 100 % of control and 91 % of control | dose: 200.0 mg/kg/injection, schedule: Q04DX003 (ip), vehicle: carboxymethylcellulose (CMC) 86 % of control | dose: 400.0 mg/kg/injection, schedule: Q01DX009 (ip), vehicle: carboxymethylcellulose (CMC) 94 % of control | dose: 400.0 mg/kg/injection, schedule: Q04DX002 (ip), vehicle: Klucel (hydroxypropylcellulose) (HPC) 107 % of control | dose: 400.0 mg/kg/injection, schedule: Q04DX002 (ip), vehicle: carboxymethylcellulose (CMC) 111 % of control and 91 % of control | dose: 400.0 mg/kg/injection, schedule: Q04DX003 (ip), vehicle: carboxymethylcellulose (CMC) 93 % of control

COC(=O)CCCC(=O)c1[nH]c2ccccc2c1CC(=O)NCc1ccccc1
inactive: dose: 75.0 mg/kg/injection, schedule: Q01DX001 (ip), vehicle: alcohol 97 % of control | dose: 150.0 mg/kg/injection, schedule: Q01DX001 (ip), vehicle: alcohol 93 % of control | dose: 300.0 mg/kg/injection, schedule: Q01DX001 (ip), vehicle: alcohol 92 % of control

CN(C)/N=N/c1nc[nH]c1C(N)=O.[Cl][Cu][Cl]
inactive: dose: 9.5 mg/kg/injection, schedule: Q01DX001 (ip), vehicle: saline 103 % of control | dose: 19.0 mg/kg/injection, schedule: Q01DX001 (ip), vehicle: saline 95 % of control | dose: 38.0 mg/kg/injection, schedule: Q01DX001 (ip), vehicle: saline 101 % of control

COc1ccccc1NC(=O)Nc1ccccc1
inactive: dose: 100.0 mg/kg/injection, schedule: Q01DX009 (ip), vehicle: Klucel (hydroxypropylcellulose) (HPC) 94 % of control and 102 % of control | [5] 95 % of control | dose: 200.0 mg/kg/injection, schedule: Q01DX009 (ip), vehicle: Klucel (hydroxypropylcellulose) (HPC) 96 % of control and 97 % of control | [6] 93 % of control | dose: 400.0 mg/kg/injection, schedule: Q01DX009 (ip), vehicle: Klucel (hydroxypropylcellulose) (HPC) 96 % of control and 100 % of control | [8] 86 % of control

Nc1ccc(C(=O)Nc2ccc(NC(=O)Nc3ccc(NC(=O)c4ccc(N)cc4)c(S(=O)(=O)O)c3)cc2S(=O)(=O)O)cc1
inactive: dose: 60.0 mg/kg/injection, schedule: Q01DX Z (ip), vehicle: carboxymethylcellulose (CMC) 96 % of control | dose: 120.0 mg/kg/injection, schedule: Q01DX Z (ip), vehicle: carboxymethylcellulose (CMC) 98 % of control | dose: 240.0 mg/kg/injection, schedule: Q01DX Z (ip), vehicle: carboxymethylcellulose (CMC) 95 % of control | dose: 240.0 mg/kg/injection, schedule: Q01DX Z (oral), vehicle: carboxymethylcellulose (CMC) 106 % of control | dose: 480.0 mg/kg/injection, schedule: Q01DX Z (ip), vehicle: carboxymethylcellulose (CMC) 95 % of control | dose: 480.0 mg/kg/injection, schedule: Q01DX Z (oral), vehicle: carboxymethylcellulose (CMC) 112 % of control | dose: 960.0 mg/kg/injection, schedule: Q01DX Z (oral), vehicle: carboxymethylcellulose (CMC) 93 % of control

CNC(=O)CCCCC(=O)NC
inactive: dose: 100.0 mg/kg/injection, schedule: Q01DX009 (ip), vehicle: saline 107 % of control | dose: 100.0 mg/kg/injection, schedule: Q04DX003 (ip), vehicle: saline 103 % of control | dose: 200.0 mg/kg/injection, schedule: Q01DX009 (ip), vehicle: saline 102 % of control | dose: 200.0 mg/kg/injection, schedule: Q04DX003 (ip), vehicle: saline 98 % of control | dose: 400.0 mg/kg/injection, schedule: Q01DX009 (ip), vehicle: saline 108 % of control | dose: 400.0 mg/kg/injection, schedule: Q04DX003 (ip), vehicle: saline 101 % of control
